Measured values as given in patent US12677832B2, “Oxadiazole compounds for controlling or preventing phytopathogenic fungi” (PI INDUSTRIES LTD., priority 2019, dated 2026).

Tested on: Phakopsora pachyrhizi
Experiment: Phakopsora pachyrhizi Test in Soybean (preventive spray)
Type: in vivo
Details: preventive spray on Soybean plants, inoculated one day after treatment, disease severity vs untreated control
Method: Example 7: Phakopsora pachyrhizi Test in Soybean Compounds were dissolved in 2% dimethyl sulfoxide/acetone and then mixed with water containing an emulsifier to a calibrated spray volume of 50 mL. This 50 mL spray solution was poured into spray bottles for further applications. To test the preventive activity of compounds, healthy young Soybean plants, raised in the greenhouse, were sprayed with the active compound preparation at the stated application rates inside the spray cabinets using hollow cone nozzles. One day after treatment, the plants were inoculated with a spore suspension containing 2×10^5Phakopsora pachyrhizi conidia. The inoculated plants were then kept in a greenhouse chamber at 22-24° C. temperature and 80-90% relative humidity for disease expression. A visual assessment of the compound's performance was carried out by rating the disease severity (0-100% scale) on treated plants 3, 7, 10 and 15 days after application. Efficacy (% control) of the compounds was calculated by comparing the disease rating in the treatment with the one of the untreated control. The sprayed plants were also assessed for plant compatibility by recording symptoms like necrosis, chlorosis and stunting.

SMILES | pest or weed control at 500 ppm [%]
O=C(COc1ccccc1F)c1ccc(-c2noc(C(F)(F)F)n2)cc1 [Compound 1, 2-(2-fluorophenoxy)-1-(4-(5-(trifluoromethyl)-1,2,4-oxadiazol-3-yl)phenyl)ethan-1-one] | ≥ 70
COc1ccc(OCC(=O)c2ccc(-c3noc(C(F)(F)F)n3)cc2)cc1 [Compound 2, 2-(4-methoxyphenoxy)-1-(4-(5-(trifluoromethyl)-1,2,4-oxadiazol-3-yl)phenyl)ethan-1-one] | ≥ 70
O=C(COc1cccc(F)c1)c1ccc(-c2noc(C(F)(F)F)n2)cc1 [Compound 3, 2-(3-fluorophenoxy)-1-(4-(5-(trifluoromethyl)-1,2,4-oxadiazol-3-yl)phenyl)ethan-1-one] | ≥ 70
O=C(COc1ccc(F)cc1)c1ccc(-c2noc(C(F)(F)F)n2)cc1 [Compound 4, 2-(4-fluorophenoxy)-1-(4-(5-(trifluoromethyl)-1,2,4-oxadiazol-3-yl)phenyl)ethan-1-one] | ≥ 70
O=C(COc1ccc(Br)cc1)c1ccc(-c2noc(C(F)(F)F)n2)cc1 [Compound 5, 2-(4-bromophenoxy)-1-(4-(5-(trifluoromethyl)-1,2,4-oxadiazol-3-yl)phenyl)ethan-1-one] | ≥ 70
O=C(COc1ccc(Cl)cc1)c1ccc(-c2noc(C(F)(F)F)n2)cc1 [Compound 6, 2-(4-chlorophenoxy)-1-(4-(5-(trifluoromethyl)-1,2,4-oxadiazol-3-yl)phenyl)ethan-1-one] | ≥ 70
O=C(COc1ccc(Cl)c(C(F)(F)F)c1)c1ccc(-c2noc(C(F)(F)F)n2)cc1 [Compound 9, 2-(4-chloro-3-(trifluoromethyl)phenoxy)-1-(4-(5-(trifluoromethyl)-1,2,4-oxadiazol-3-yl)phenyl)ethan-1-one] | ≥ 70
Cc1cccc(OCC(=O)c2ccc(-c3noc(C(F)(F)F)n3)cc2)c1 [Compound 10, 2-(m-tolyloxy)-1-(4-(5-(trifluoromethyl)-1,2,4-oxadiazol-3-yl)phenyl)ethan-1-one] | ≥ 70
COc1ccccc1OCC(=O)c1ccc(-c2noc(C(F)(F)F)n2)cc1 [Compound 11, 2-(2-methoxyphenoxy)-1-(4-(5-(trifluoromethyl)-1,2,4-oxadiazol-3-yl)phenyl)ethan-1-one] | ≥ 70
O=C(COc1ccc(Br)c(F)c1)c1ccc(-c2noc(C(F)(F)F)n2)cc1 [Compound 12, 2-(4-bromo-3-fluorophenoxy)-1-(4-(5-(trifluoromethyl)-1,2,4-oxadiazol-3-yl)phenyl)ethan-1-one] | ≥ 70
O=C(CSc1c(Cl)cccc1Cl)c1ccc(-c2noc(C(F)(F)F)n2)cc1 [Compound 13, 2-((2,6-dichlorophenyl)thio)-1-(4-(5-(trifluoromethyl)-1,2,4-oxadiazol-3-yl)phenyl)ethan-1-one] | ≥ 70
COc1cccc(SCC(=O)c2ccc(-c3noc(C(F)(F)F)n3)cc2)c1 [Compound 14, 2-((3-methoxyphenyl)thio)-1-(4-(5-(trifluoromethyl)-1,2,4-oxadiazol-3-yl)phenyl)ethan-1-one] | ≥ 70
Cc1ccc(C)c(OCC(=O)c2ccc(-c3noc(C(F)(F)F)n3)cc2)c1 [Compound 16, 2-(2,5-dimethylphenoxy)-1-(4-(5-(trifluoromethyl)-1,2,4-oxadiazol-3-yl)phenyl)ethan-1-one] | ≥ 70
O=C(COc1ccc(F)cc1Cl)c1ccc(-c2noc(C(F)(F)F)n2)cc1 [Compound 19, 2-(2-chloro-4-fluorophenoxy)-1-(4-(5-(trifluoromethyl)-1,2,4-oxadiazol-3-yl)phenyl)ethan-1-one] | ≥ 70
O=C(COc1ccc(Cl)cc1Cl)c1ccc(-c2noc(C(F)(F)F)n2)cc1 [Compound 20, 2-(2,4-dichlorophenoxy)-1-(4-(5-(trifluoromethyl)-1,2,4-oxadiazol-3-yl)phenyl)ethan-1-one] | ≥ 70
Cc1ccc(SCC(=O)c2ccc(-c3noc(C(F)(F)F)n3)cc2)cc1 [Compound 22, 2-(p-tolylthio)-1-(4-(5-(trifluoromethyl)-1,2,4-oxadiazol-3-yl)phenyl)ethan-1-one] | ≥ 70
COc1ccc(SCC(=O)c2ccc(-c3noc(C(F)(F)F)n3)cc2)cc1 [Compound 23, 2-((4-methoxyphenyl)thio)-1-(4-(5-(trifluoromethyl)-1,2,4-oxadiazol-3-yl)phenyl)ethan-1-one] | ≥ 70
O=C(CSC1CCCC1)c1ccc(-c2noc(C(F)(F)F)n2)cc1 [Compound 24, 2-(cyclopentylthio)-1-(4-(5-(trifluoromethyl)-1,2,4-oxadiazol-3-yl)phenyl)ethan-1-one] | ≥ 70

SMILES | pest or weed control at 500 ppm [%]
O=C(CSc1nc2ccccc2o1)c1ccc(-c2noc(C(F)(F)F)n2)cc1 [Compound 25, 2-(benzo[d]oxazol-2-ylthio)-1-(4-(5-(trifluoromethyl)-1,2,4-oxadiazol-3-yl)phenyl)ethan-1-one] | ≥ 70
Cc1csc(SCC(=O)c2ccc(-c3noc(C(F)(F)F)n3)cc2)n1 [Compound 26, 2-((4-methylthiazol-2-yl)thio)-1-(4-(5-(trifluoromethyl)-1,2,4-oxadiazol-3-yl)phenyl)ethan-1-one] | ≥ 70
O=C(CNc1ccc(C(F)(F)F)cc1)c1ccc(-c2noc(C(F)(F)F)n2)cc1 [Compound 28, 1-(4-(5-(trifluoromethyl)-1,2,4-oxadiazol-3-yl)phenyl)-2-((4-(trifluoromethyl)phenyl)amino)ethan-1-one] | ≥ 70
O=C(CNc1ccccc1F)c1ccc(-c2noc(C(F)(F)F)n2)cc1 [Compound 29, 2-((2-fluorophenyl)amino)-1-(4-(5-(trifluoromethyl)-1,2,4-oxadiazol-3-yl)phenyl)ethan-1-one] | ≥ 70
Cc1ccc(Cl)c(OCC(=O)c2ccc(-c3noc(C(F)(F)F)n3)cc2)c1 [Compound 33, 2-(2-chloro-5-methylphenoxy)-1-(4-(5-(trifluoromethyl)-1,2,4-oxadiazol-3-yl)phenyl)ethan-1-one] | ≥ 70
Cc1ccc(OCC(=O)c2ccc(-c3noc(C(F)(F)F)n3)cc2)cc1 [Compound 34, 2-(p-tolyloxy)-1-(4-(5-(trifluoromethyl)-1,2,4-oxadiazol-3-yl)phenyl)ethan-1-one] | ≥ 70
O=C(COc1cccc(Cl)c1)c1ccc(-c2noc(C(F)(F)F)n2)cc1 [Compound 35, 2-(3-chlorophenoxy)-1-(4-(5-(trifluoromethyl)-1,2,4-oxadiazol-3-yl)phenyl)ethan-1-one] | ≥ 70
O=C(COc1ccc(C(F)(F)F)cc1)c1ccc(-c2noc(C(F)(F)F)n2)cc1 [Compound 36, 1-(4-(5-(trifluoromethyl)-1,2,4-oxadiazol-3-yl)phenyl)-2-(4-(trifluoromethyl)phenoxy)ethan-1-one] | ≥ 70
O=C(COc1cccc(C(F)(F)F)c1)c1ccc(-c2noc(C(F)(F)F)n2)cc1 [Compound 40, 1-(4-(5-(trifluoromethyl)-1,2,4-oxadiazol-3-yl)phenyl)-2-(3-(trifluoromethyl)phenoxy)ethan-1-one] | ≥ 70
Cc1cc(F)cc(OCC(=O)c2ccc(-c3noc(C(F)(F)F)n3)cc2)c1 [Compound 41, 2-(3-fluoro-5-methylphenoxy)-1-(4-(5-(trifluoromethyl)-1,2,4-oxadiazol-3-yl)phenyl)ethan-1-one] | ≥ 70
O=C(COc1cc(F)cc(Cl)c1)c1ccc(-c2noc(C(F)(F)F)n2)cc1 [Compound 42, 2-(3-chloro-5-fluorophenoxy)-1-(4-(5-(trifluoromethyl)-1,2,4-oxadiazol-3-yl)phenyl)ethan-1-one] | ≥ 70
O=C(COc1ccnc(Cl)c1)c1ccc(-c2noc(C(F)(F)F)n2)cc1 [Compound 44, 2-((2-chloropyridin-4-yl)oxy)-1-(4-(5-(trifluoromethyl)-1,2,4-oxadiazol-3-yl)phenyl)ethan-1-one] | ≥ 70
Cc1ccc(C(F)(F)F)c(OCC(=O)c2ccc(-c3noc(C(F)(F)F)n3)cc2)n1 [Compound 45, 2-((6-methyl-3-(trifluoromethyl)pyridin-2-yl)oxy)-1-(4-(5-(trifluoromethyl)-1,2,4-oxadiazol-3-yl)phenyl)ethan-1-one] | ≥ 70
O=C(COc1cccnc1Cl)c1ccc(-c2noc(C(F)(F)F)n2)cc1 [Compound 46, 2-((2-chloropyridin-3-yl)oxy)-1-(4-(5-(trifluoromethyl)-1,2,4-oxadiazol-3-yl)phenyl)ethan-1-one] | ≥ 70
O=C(COc1ccc(F)nc1)c1ccc(-c2noc(C(F)(F)F)n2)cc1 [Compound 47, 2-((6-fluoropyridin-3-yl)oxy)-1-(4-(5-(trifluoromethyl)-1,2,4-oxadiazol-3-yl)phenyl)ethan-1-one] | ≥ 70
Cn1ccc(OCC(=O)c2ccc(-c3noc(C(F)(F)F)n3)cc2)n1 [Compound 50, 2-((1-methyl-1H-pyrazol-3-yl)oxy)-1-(4-(5-(trifluoromethyl)-1,2,4-oxadiazol-3-yl)phenyl)ethan-1-one] | ≥ 70
O=C(CSc1ccc(Cl)c(Cl)c1)c1ccc(-c2noc(C(F)(F)F)n2)cc1 [Compound 52, 2-((3,4-dichlorophenyl)thio)-1-(4-(5-(trifluoromethyl)-1,2,4-oxadiazol-3-yl)phenyl)ethan-1-one] | ≥ 70
